Results reported in article PMC6972948 (Scientific Reports, 2020).

Test system: A/duck/Ukraine/1/1963
Type: cell-based, avian influenza A virus

For `CCC(CC)O[C@@H]1C=C(C(=O)O)C[C@H](N)[C@H]1NC(C)=O` [Oseltamivir carboxylate, oseltamivir carboxylate], the plaque formation was “complete abrogation of plaque formation”, the Plaque dia. (Conc. 1 μM) was 0 mm and the Plaque qty. (Conc. 1 μM) was 0.
